Results reported in ChEMBL document CHEMBL5120862, “Novel non-covalent LSD1 inhibitors endowed with anticancer effects in leukemia and solid tumor cellular models” (Eur J Med Chem, 2022).
Calls of active or inactive are those of the source. The calls are words filed in the database; no cut-off is given here.

Tests used:
LSD1/CoREST complex [1] = molecular target: T1, LSD1/CoREST complex (Homo sapiens, UniProt O60341); test: Binding affinity to human LSD1/CoREST assessed as dissociation constant by competitive fluorescence polarization assay; assay type: protein-complex assay
[2] = molecular target: T2, Histone-lysine N-methyltransferase EHMT2 (Homo sapiens, UniProt Q96KQ7); test: Inhibition of G9a (unknown origin) assessed as reduction in substrate methylation using histone H3 and SAM as substrate measured after 15 to 60 mins by microfluidic capillary electrophoresis analysis
T2 sequence (Q96KQ7 whole entry): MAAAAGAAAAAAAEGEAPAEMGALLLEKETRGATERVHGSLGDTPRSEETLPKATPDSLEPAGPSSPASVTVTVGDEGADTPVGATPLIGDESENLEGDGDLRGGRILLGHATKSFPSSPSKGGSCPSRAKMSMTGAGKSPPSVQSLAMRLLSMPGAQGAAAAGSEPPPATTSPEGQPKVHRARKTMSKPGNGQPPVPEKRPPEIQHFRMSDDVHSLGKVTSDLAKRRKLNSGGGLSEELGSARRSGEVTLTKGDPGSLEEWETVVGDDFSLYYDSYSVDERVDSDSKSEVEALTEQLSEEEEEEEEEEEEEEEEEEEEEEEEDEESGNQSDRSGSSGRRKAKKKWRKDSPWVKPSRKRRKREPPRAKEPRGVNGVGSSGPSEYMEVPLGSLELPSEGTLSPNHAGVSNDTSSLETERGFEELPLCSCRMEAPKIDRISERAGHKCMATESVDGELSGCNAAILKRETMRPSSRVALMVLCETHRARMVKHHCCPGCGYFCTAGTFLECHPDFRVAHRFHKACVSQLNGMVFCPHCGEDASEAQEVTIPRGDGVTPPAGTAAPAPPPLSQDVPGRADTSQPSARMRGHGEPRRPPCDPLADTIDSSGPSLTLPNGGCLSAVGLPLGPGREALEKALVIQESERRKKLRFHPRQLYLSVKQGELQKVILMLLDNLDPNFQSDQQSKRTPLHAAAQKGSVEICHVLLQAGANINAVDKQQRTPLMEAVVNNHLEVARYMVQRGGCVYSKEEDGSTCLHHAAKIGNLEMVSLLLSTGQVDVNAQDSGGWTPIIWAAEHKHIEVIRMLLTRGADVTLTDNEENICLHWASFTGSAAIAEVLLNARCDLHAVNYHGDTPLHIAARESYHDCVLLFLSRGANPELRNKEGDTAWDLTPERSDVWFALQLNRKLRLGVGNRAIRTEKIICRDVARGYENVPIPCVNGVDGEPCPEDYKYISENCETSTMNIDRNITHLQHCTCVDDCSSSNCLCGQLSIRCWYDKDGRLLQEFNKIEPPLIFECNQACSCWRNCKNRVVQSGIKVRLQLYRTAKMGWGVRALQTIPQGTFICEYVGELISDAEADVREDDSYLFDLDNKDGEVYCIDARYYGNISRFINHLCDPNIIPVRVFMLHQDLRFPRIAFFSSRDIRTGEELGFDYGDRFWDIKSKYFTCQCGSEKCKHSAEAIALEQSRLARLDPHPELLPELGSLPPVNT

[3] = Cytotoxicity against human AHH-1 cells assessed as residual cell viability at 1 uM measured after 72 hrs by MTT assay relative to control; assay type: toxicity, cell-based; settings: read-out: Activity
[4] = molecular target: Lysine-specific histone demethylase 1A (Homo sapiens) (UniProt O60341); test: Inhibition of LSD1 in human MV4-11 cells assessed as increase in CD86 expression level incubated for 24 hrs by qRT-PCR analysis; assay type: cell-based; settings: dose 0.2-1 µM
[5] = molecular target: Lysine-specific histone demethylase 1A (Homo sapiens) (UniProt O60341); test: Inhibition of LSD1 in human MV4-11 cells assessed as increase in H3K4me2 level at 0.2 to […] incubated for 24 hrs by Western blot analysis; assay type: cell-based; settings: dose 0.2-2.5 µM
MV4-11 [6] = test: Antiproliferative activity against human MV4-11 cells assessed as inhibition of cell growth at […] incubated for 72 to 144 hrs by trypan blue staining based analysis; assay type: functional; settings: dose 2.5 µM, time 72-144 hrs
THP-1 [7] = test: Antiproliferative activity against human THP-1 cells assessed as inhibition of cell growth incubated for 72 hrs by CellTiter-Glo luminescent cell viability assay; assay type: functional, cell-based; settings: THP-1, 72 h
LSD1/CoREST complex [8] = molecular target: T1, LSD1/CoREST complex; test: Inhibition of human LSD1/CoREST using histone H3 peptide as substrate by fluorescence polarization assay; assay type: protein-complex assay
THP-1 [9] = test: Antiproliferative activity against human THP-1 cells assessed as inhibition of cell growth incubated for 144 hrs by CellTiter-Glo luminescent cell viability assay; assay type: functional, cell-based; settings: THP-1, 144 h
MDA-MB-231 = test: Antiproliferative activity against human MDA-MB-231 cells assessed as inhibition of cell growth measured after 72 hrs by MTT assay; assay type: functional, cell-based; settings: MDA-MB-231, 72 h
MV4-11 [10] = test: Induction of apoptosis in human MV4-11 cells assessed as accumulation of cells at sub-G1 phase incubated for 24 hrs; assay type: functional, cell-based; settings: dose 0.2-25 µM, DDE = dose-dependent effect
[11] = Cytotoxicity against HMEC cells assessed as residual cell viability at 1 uM incubated for 72 hrs by MTT assay relative to control; assay type: toxicity, cell-based; settings: human, read-out: Activity
THP-1 [12] = test: Antiproliferative activity against human THP-1 cells assessed as inhibition of cell growth incubated for 24 hrs by CellTiter-Glo luminescent cell viability assay; assay type: functional, cell-based; settings: THP-1, 24 h
MV4-11 [13] = test: Induction of cell cycle arrest in human MV4-11 cells assessed as accumulation of cells at G1 phase at 0.2 to […] incubated for 24 hrs; assay type: functional, cell-based; settings: dose 0.2-2.5 µM
RD [14] = test: Antiproliferative activity against human RD cells assessed as inhibition of cell growth incubated for 72 hrs; assay type: functional, cell-based
SJRH30 [15] = test: Antiproliferative activity against human Rh30 cells assessed as inhibition of cell growth incubated for 24 hrs; assay type: functional, cell-based; settings: SJRH30, 24 h
[16] = molecular target: Lysine-specific histone demethylase 1A (Homo sapiens) (UniProt O60341); test: Inhibition of LSD1 in human RD cells assessed as increase in H3K4me2 level at 1 uM incubated for 48 hrs by Western blot analysis; assay type: cell-based
RD [17] = test: Antiproliferative activity against human RD cells assessed as inhibition of cell growth incubated for 144 hrs; assay type: functional, cell-based
RD [18] = test: Induction of apoptosis in human RD cells assessed as increase in caspase 3/7 level at 2 uM incubated for 24 hrs; assay type: functional, cell-based
[19] = Cytotoxicity against human derived mesenchymal stem cells assessed as residual cell viability at 1.25 uM measured after 72 hrs relative to control; assay type: toxicity, cell-based; settings: read-out: Activity
[20] = molecular target: Lysine-specific histone demethylase 1A (Homo sapiens) (UniProt O60341); test: Inhibition of LSD1 in human Rh30 cells assessed as increase in H3K4me2 level at 1 uM incubated for 48 hrs by Western blot analysis; assay type: cell-based
SJRH30 [21] = test: Induction of apoptosis in human Rh30 cells assessed as increase in caspase 3/7 level at 2 uM incubated for 24 hrs; assay type: functional, cell-based
SJRH30 [22] = test: Antiproliferative activity against human Rh30 cells assessed as inhibition of cell growth incubated for 144 hrs; assay type: functional, cell-based; settings: SJRH30, 144 h
RD [23] = test: Antiproliferative activity against human RD cells assessed as inhibition of cell growth incubated for 24 hrs; assay type: functional, cell-based
RD [24] = test: Antiproliferative activity against human RD cells assessed as reduction in live cells at 2 uM incubated for 72 hrs by calceinAM/propidium iodide staining based fluorescence microscopy; assay type: functional, cell-based
SJRH30 [25] = test: Antiproliferative activity against human Rh30 cells assessed as reduction in live cells at 2 uM incubated for 24 hrs by calceinAM/propidium iodide staining based fluorescence microscopy; assay type: functional, cell-based
SJRH30 [26] = test: Antiproliferative activity against human Rh30 cells assessed as inhibition of cell growth incubated for 72 hrs; assay type: functional, cell-based; settings: SJRH30, 72 h

SMILES: COc1cc2nc(NCCCN(C)C)nc(NC3CCN(C(=O)c4ccccc4)CC3)c2cc1OC
- Kd (LSD1/CoREST complex [1]): 975 nM
- Ki [2]: 32900 nM

SMILES: COc1cc2nc(NCCCN(C)C)nc(NC3CCN(Cc4ccccc4)C3)c2cc1OC (centres undefined)
- Kd (LSD1/CoREST complex [1]): 251 nM
- Ki [2]: 8030 nM

SMILES: COc1cc2nc(NCCCN(C)C)nc(NC3CCN(Cc4ccc(-c5ccccc5)cc4)CC3)c2cc1OC
- viability at 72 h, 1 µM [3]: 79.1%
- inhibition [4]: Active
- inhibition [5]: Active
- inhibition (MV4-11 [6]): Active
- IC50 (THP-1 [7]): 120 nM
- Ki (LSD1/CoREST complex [8]): 146 nM
- Kd (LSD1/CoREST complex [1]): 81 nM
- IC50 (THP-1 [9]): 87 nM
- IC50 (MDA-MB-231): 290 nM
- Activity (MV4-11 [10]): Dde
- viability at 72 h, 1 µM [11]: 88.1%
- IC50 (THP-1 [12]): 170 nM
- Activity (MV4-11 [13]): Active
- Ki [2]: 1180 nM

SMILES: COc1cc2nc(NCCCN3CCCC3)nc(NC3CCN(Cc4ccccc4)CC3)c2cc1OC
- Ki (LSD1/CoREST complex [8]): 183 nM
- Kd (LSD1/CoREST complex [1]): 82 nM
- Ki [2]: 4010 nM

SMILES: COc1cc2nc(NCCCN(C)C)nc(NC3CCN(Cc4ccc5ccccc5c4)CC3)c2cc1OC
- viability at 72 h, 1 µM [3]: 81.5%
- IC50 (RD [14]): 1230 nM
- IC50 (SJRH30 [15]): 1210 nM
- inhibition [5]: Active
- inhibition [16]: Active
- IC50 (RD [17]): 900 nM
- inhibition (MV4-11 [6]): Active
- IC50 (THP-1 [7]): 160 nM
- Activity (RD [18]): Active
- Ki (LSD1/CoREST complex [8]): 156 nM
- viability at 72 h, 1.25 µM [19]: 96%
- Kd (LSD1/CoREST complex [1]): 75 nM
- inhibition [20]: Active
- Activity (SJRH30 [21]): Active
- IC50 (THP-1 [9]): 92 nM
- IC50 (SJRH30 [22]): 690 nM
- IC50 (MDA-MB-231): 210 nM
- Activity (MV4-11 [10]): Dde
- IC50 (RD [23]): 2280 nM
- Activity (RD [24]): Active
- Activity (SJRH30 [25]): Active
- viability at 72 h, 1 µM [11]: 96.5%
- IC50 (SJRH30 [26]): 910 nM
- IC50 (THP-1 [12]): 300 nM
- Activity (MV4-11 [13]): Active
- Ki [2]: 2930 nM

SMILES: CCN(CC)CCCNc1nc(NC2CCN(Cc3ccccc3)CC2)c2cc(OC)c(OC)cc2n1
- Ki (LSD1/CoREST complex [8]): 175 nM
- Kd (LSD1/CoREST complex [1]): 86 nM
- Ki [2]: 3940 nM

SMILES: COc1cc2nc(NCCCN(C)C)nc(NC3CCN(C(=O)OC(C)(C)C)CC3)c2cc1OC
- IC50 (THP-1 [7]): 710 nM
- Ki (LSD1/CoREST complex [8]): 205 nM
- Kd (LSD1/CoREST complex [1]): 82 nM
- IC50 (THP-1 [9]): 550 nM
- IC50 (THP-1 [12]): 870 nM
- Ki [2]: 46900 nM

SMILES: COc1cc2nc(NCCCN(C)C)nc(NC3CCNCC3)c2cc1OC
- Kd (LSD1/CoREST complex [1]): 1560 nM
- Ki [2]: 4830 nM

SMILES: COc1cc2nc(NCCN(C)C)nc(NC3CCN(Cc4ccccc4)CC3)c2cc1OC
- Kd (LSD1/CoREST complex [1]): 237 nM
- Ki [2]: 5260 nM

SMILES: COc1cc2nc(NCCCN(C)C)nc(NC3CCN(C)CC3)c2cc1OC
- Kd (LSD1/CoREST complex [1]): 1490 nM
- Ki [2]: 4170 nM

SMILES: COc1cc2nc(NCCCN(C)C)nc(NC3CCN(Cc4cccc5ccccc45)CC3)c2cc1OC
- Ki (LSD1/CoREST complex [8]): 212 nM
- Kd (LSD1/CoREST complex [1]): 84 nM
- Ki [2]: 3100 nM

SMILES: COc1cc2nc(N(C)CCCN(C)C)nc(NC3CCN(Cc4ccccc4)CC3)c2cc1OC
- Kd (LSD1/CoREST complex [1]): 1300 nM
- Ki [2]: 5820 nM

SMILES: COc1cc2nc(NCCCN(C)C)nc(NCCNc3cccc4ccccc34)c2cc1OC
- Kd (LSD1/CoREST complex [1]): 230 nM
- Ki [2]: 41500 nM
